Data published in patent US10987407B2, “Methods and compositions for treating hypoglycemic disorders” (priority 2007, dated 2021).
Entries after “also recorded” stand apart in the source; their conditions may differ. Where two headings read alike, the source gives them in different places. Marks after values point to notes of the source that are not given here.

Columns and labels:
SUR-1−/− mice [1] = experiment: Fasting blood glucose during continuous subcutaneous exendin-(9-39) infusion in SUR-1−/− mice; assay type: in vivo, mouse; settings: 150 pmol/kg/min s.c. pump, day 3, mean±SEM, vehicle 63.2±4.9
Text: (§1) SUR-1^−/− mice were kindly provided by Dr. Mark A. Magnuson. The generation and genotyping of SUR-1^−/− mice were previously described (8). Mice are maintained in a C57Bl/6 genetic background. Twelve to eighteen week SUR-1^−/− and wild-type littermatte control mice were used in all experiments. Mice were maintained on a 12:12-h light-dark cycle and were fed a standard rodent chow diet. All procedures were approved and carried out according to the University of Pennsylvania Institutional Animal Care and Use Committee guidelines. […]
(§2) For determination of fasting blood glucose levels mice were fasted for 12-16 hours. […] Blood glucose levels were measured using a hand-held glucose meter (FreeStyle; TheraSense, Alameda, Calif.). Insulin and glucagon were measured by ELISA (Mouse Endocrine Immunoassay Panel; Linco Research, Inc., St. Charles, Mo.).
(§3) Twelve-18 week old male SUR-1^−/− and wildtype littermates underwent a baseline evaluation including fasting blood glucose measurements and oral glucose tolerance testing, followed by randomization to treatment with exendin-(9-39) (150 pmol/kg/min) or vehicle (0.9% NaCl, 1% BSA). Fasting blood glucose levels were determined after an overnight fast on days 3 and 7 of the infusion. In addition, oral glucose tolerance and insulin sensitivity were evaluated during treatment. […]

[2] = test system: subject with congenital hyperinsulinism due to a mutation in ABCC8; experiment: Intravenous exendin-(9-39) infusion in fasting subjects with congenital hyperinsulinism; assay type: in vivo, human
Protocol: After an overnight fast, subject received an intravenous infusion of 0.9% NaCl for 60 min followed by a 6 hour intravenous infusion of exendin-(9-39) at ascending doses every 120 min (100 pmol/kg/min for 120 min, then 300 pmol/kg/min for 120 min and then 500 pmol/kg/min for 120 min). On the second day, 0.9% NaCl was infused intravenously after an overnight fast for a total of 7 hours.
Blood samples for glucose, insulin, C-peptide, glucagon and GLP-1 were obtained at different intervals during the infusions.

SUR-1−/− islets [3] = experiment: Perifusion of isolated islets with amino acid ramp, insulin release; assay type: cell-based, mouse
Protocol: Islets were isolated by collagenase digestion and cultured for 3 days in RPMI 1640 medium containing 10 mM glucose. The culture medium was supplemented with 10% fetal bovine serum, 2 mM glutamine, 100 units/mL penicillin, and 50 μg/mL streptomycin. Islets were incubated at 37° C. in a 5% CO2, 95% air-humidified incubator. Batches of 100 cultured mouse islets were loaded onto a nylon filter in a chamber and perifused with Krebs-Ringer bicarbonate buffer (115 mM NaCl, 24 mM NaHCO3, 5 mM KCl, 1 mM MgCl2, 2.5 mM CaCl2), 10 mM HEPES, pH 7.4) with 0.25% bovine serum albumin at a flow rate of 2 mL/min. Perifusate solutions were gassed with 95% 02, 5% CO2 and maintained at 37° C. Islets were stimulated with a ramp of amino acids. […] Insulin was measured by radioimmunoassay (Linco Research Inc., St. Charles, Mo.).
Given the observed in vivo effects on insulin secretion but not insulin sensitivity, it was next determined whether exendin-(9-39) exerts a direct effect on SUR-1^−/− islet function. […]

SUR-1−/− islets [4] = experiment: Insulin secretion in static incubations of isolated islets; assay type: cell-based, mouse
SUR-1−/− islets [5] = experiment: cAMP content in static incubations of isolated islets; assay type: cell-based, mouse
Protocol: Islets were isolated as above, hand-picked and cultured for three days. Cultured islets were preincubated in glucose free Krebs-Ringer bicarbonate buffer for 60 min, 100 nM exendin-(9-39) was added 30 min into the preincubation period. Then, islets were exposed to different treatments for an additional 30 min in the presence of 0.1 mM isobutyl-methylzanthine (IBMX). After incubation, islets were washed 2 times by cold glucose-free Hank's buffer. cAMP was measured in islet lysates by ELISA (GE/Amersham Biosciences, Piscataway, N.J.). The effect of exendin-(9-39) on cAMP was determined in static incubations of isolated islets.

SUR-1−/− mice [6] = experiment: Fasting hormonal profile (insulin, glucagon, insulin/glucose ratio) during treatment; assay type: in vivo, mouse
Protocol: (§4) Alzet mini-osmotic pumps (model 2002; Alza, Palo Alto, Calif.) were implanted subcutaneously to deliver exendin-(9-39) (Bachem Bioscience, King of Prussia, Pa.) at a rate of 150 pmol/kg/min or vehicle (0.9% NaCl/1% BSA) for 2 weeks. For determination of fasting blood glucose levels mice were fasted for 12-16 hours. Oral glucose tolerance testing was carried after a 12-16 hour fast by administering 2 g/kg of dextrose by oral gavage (feeding needles; Popper and Sons, Inc., Hyde Park, N.Y.). For insulin tolerance testing mice received 0.5 units/kg of insulin intraperitoneally after a 4 hour fast. Blood glucose levels were measured using a hand-held glucose meter (FreeStyle; TheraSense, Alameda, Calif.). Insulin and glucagon were measured by ELISA (Mouse Endocrine Immunoassay Panel; Linco Research, Inc., St. Charles, Mo.).

wild-type littermates = experiment: Oral glucose tolerance test in wild-type littermates; assay type: in vivo, mouse; settings: wild-type littermates during treatment
Protocol: as §4

[7] = test system: wild-type littermate control mice; experiment: Fasting blood glucose during continuous subcutaneous exendin-(9-39) infusion in wild-type littermates; assay type: in vivo, mouse; settings: 150 pmol/kg/min s.c. pump
Text: as §1, §2, §3

SUR-1−/− islets [8] = experiment: Cytosolic free Ca2+ measurement (Fura-2) in islets; assay type: cell-based, mouse
Protocol: Mouse islets were isolated and cultured on poly-[…] coated glass coverslips under the same conditions as described above. The perifusion procedure and cytosolic-free Ca2+([Ca2+]i) measurement were described previously (24). In brief, the coverslip with attached islets was incubated with 15 μM Fura-2 acetoxymethylester (Molecular Probes, Eugene, Oreg.) in Krebs-Ringer bicarbonate buffer with 5 mM glucose for 35 min at 37° C. Islets were then perifused with Krebs-Ringer bicarbonate buffer with 0.25% bovine serum albumin at 37° C. at a flow rate of 2 mL/min, while various agents were applied. [Ca2+]i was measured with a dual wavelength fluorescence microscope as previously described. The effect of exendin-(9-39) on the characteristically elevated intracellular calcium concentration of SUR-1^-/- islets was studied. […] As previously reported, amino acids caused a transient further rise in intracellular calcium.

SUR-1−/− mice [9] = experiment: Oral glucose tolerance test in SUR-1−/− mice; assay type: in vivo, mouse
Protocol: as §4

[10] = test system: SUR-1−/− and wild-type mice; experiment: Insulin tolerance test (insulin sensitivity); assay type: in vivo, mouse; settings: any of the treatment groups; 0.5 units/kg insulin i.p.
Protocol: as §4, with “Mo.). To determine the mechanism of action for the effect of exendin-(9-39) on fasting blood glucose levels insulin sensitivity was assessed by an insulin tolerance test.” for “Mo.).”

[11] = fasting HI subject, i.v. ascending doses
[12] = among the treatment groups, during treatment

exendin-(9-39)
Fasting blood glucose levels (SUR-1−/− mice [1]): 82.2 ± 6.3 mg/dL | Fasting blood glucose levels ([2]; another 2 human subjects): elevation | Blood glucose levels during infusion ([2]; fasting HI subject, i.v. 100, 300, 500 pmol/kg/min each 120 min, saline infusion dropped below 60): above 80 mg/dL | Fasting hypoglycemia [2, 11]: prevented | Plasma insulin [2, 11]: suppressed | Insulin release in response to amino acid ramp stimulation (SUR-1−/− islets [3]; 100 nM exendin-(9-39), amino acid mixture 0-12 mM): blocked | Insulin response to KCl (SUR-1−/− islets [3]; presence vs absence of exendin-(9-39)): similar | Insulin Secretion (SUR-1−/− islets [4]; 100 nM exendin-(9-39) with 4 mM AAM, AAM alone 389±17): 219±14 ng/100 islets/30 min | Insulin Secretion (SUR-1−/− islets [4]; 100 nM exendin-(9-39) with 4 mM AAM, AAM alone 389±17, listed as Exendin-(9-39)): 219 ± 14 ng/100 islets/30 min | Insulin Secretion (SUR-1−/− islets [4]; baseline, 100 nM exendin-(9-39), baseline without 221±22): 126±12 ng/100 islets/30 min | Insulin Secretion (SUR-1−/− islets [4]; baseline, 100 nM exendin-(9-39), baseline without 221±22, listed as Exendin-(9-39)): 126 ± 12 ^a ng/100 islets/30 min | cAMP Content (SUR-1−/− islets [5]; 100 nM exendin-(9-39) with 4 mM amino acid mixture (AAM)): 20.9±4.4 pmol/100 islets | cAMP Content (SUR-1−/− islets [5]; 100 nM exendin-(9-39) with 4 mM amino acid mixture (AAM), listed as Exendin-(9-39)): 52.5 ± 9.4 ^c pmol/100 islets | cAMP Content (SUR-1−/− islets [5]; basal, 100 nM exendin-(9-39), no exogenous GLP-1, baseline 40.1±4.2): 20.5±2.3 pmol/100 islets | cAMP Content (SUR-1−/− islets [5]; basal, 100 nM exendin-(9-39), no exogenous GLP-1, baseline 40.1±4.2, listed as Exendin-(9-39)): 20.5 ± 2.3 ^a pmol/100 islets | Insulin/glucose ratio (SUR-1−/− mice [6]; SUR-1−/− mice, exendin-(9-39) treatment vs WT): normalized | Fasting glucagon levels (SUR-1−/− mice [6]; [12]): not different | Fasting insulin levels (SUR-1−/− mice [6]; [12]): not different | Glucose tolerance (oral, 2 g/kg) (wild-type littermates): no effect | Fasting blood glucose levels vs vehicle-treated wild type controls [7]: not different | Basal intracellular calcium (SUR-1−/− islets [8]): did not impact | Amino acid-stimulated rise in intracellular calcium (SUR-1−/− islets [8]; amino acids 4 mM): no effect | Basal intracellular calcium (SUR-1−/− islets [8]; listed as Exendin-(9-39)): did not affect | Glucose tolerance (oral, 2 g/kg) (SUR-1−/− mice [9]; SUR-1−/− mice during treatment): did not significantly impair; also recorded: did not influence | Return to baseline blood glucose levels after oral glucose (SUR-1−/− mice [9]; SUR-1−/− mice, 120 minute time point): minor delay | Peripheral insulin sensitivity (insulin tolerance test) [10]: did not impact; also recorded: did not influence
